{"source": "ChEMBL document CHEMBL1955771", "about": "“VX-322: a novel dual receptor tyrosine kinase inhibitor for the treatment of acute myelogenous leukemia” (J Med Chem, 2012)", "key": {"Mus musculus [1]": {"test_system": "Mus musculus", "experiment": "Antitumor activity against mouse BA/F3 cells expressing FLT3-ITD mutant xenografted in BALB/c mouse myeloproliferative model assessed as reduction of phosphorylated Stat5 level in spleen administered qd for 2 days measured after 8 hrs by immunohistochemistry analysis", "format": "functional, organism-based", "conditions": "BaF3"}, "Leukemia cell": {"test_system": "Leukemia cell", "experiment": "Cytotoxicity against human primary leukemia cells isolated from acute myeloid leukemia patient expressing wild type FLT3 assessed as cell viability at 0.0005 to 10 uM after 72 hrs by luciferase assay", "format": "functional, cell-based"}, "Mus musculus [2]": {"test_system": "Mus musculus", "experiment": "Plasma concentration at steady state in BALB/c mouse xenografted with BA/F3 cells expressing FLT3-ITD mutant at 1 mg/kg, po qd", "format": "ADME, organism-based, BaF3", "parameters": "dose 1 mg/kg, route oral", "conditions": "in vivo"}, "MV4-11 [3]": {"test_system": "MV4-11", "experiment": "Induction of apoptosis in human MV4-11 cells at 100 nM assessed as apoptotic cells after 24 hrs by annexin V and propidium iodide staining method (reference value: […])", "format": "functional"}, "[4]": {"target": "Hepatocyte growth factor receptor (Homo sapiens, UniProt P08581)", "sequence (P08581 whole entry)": "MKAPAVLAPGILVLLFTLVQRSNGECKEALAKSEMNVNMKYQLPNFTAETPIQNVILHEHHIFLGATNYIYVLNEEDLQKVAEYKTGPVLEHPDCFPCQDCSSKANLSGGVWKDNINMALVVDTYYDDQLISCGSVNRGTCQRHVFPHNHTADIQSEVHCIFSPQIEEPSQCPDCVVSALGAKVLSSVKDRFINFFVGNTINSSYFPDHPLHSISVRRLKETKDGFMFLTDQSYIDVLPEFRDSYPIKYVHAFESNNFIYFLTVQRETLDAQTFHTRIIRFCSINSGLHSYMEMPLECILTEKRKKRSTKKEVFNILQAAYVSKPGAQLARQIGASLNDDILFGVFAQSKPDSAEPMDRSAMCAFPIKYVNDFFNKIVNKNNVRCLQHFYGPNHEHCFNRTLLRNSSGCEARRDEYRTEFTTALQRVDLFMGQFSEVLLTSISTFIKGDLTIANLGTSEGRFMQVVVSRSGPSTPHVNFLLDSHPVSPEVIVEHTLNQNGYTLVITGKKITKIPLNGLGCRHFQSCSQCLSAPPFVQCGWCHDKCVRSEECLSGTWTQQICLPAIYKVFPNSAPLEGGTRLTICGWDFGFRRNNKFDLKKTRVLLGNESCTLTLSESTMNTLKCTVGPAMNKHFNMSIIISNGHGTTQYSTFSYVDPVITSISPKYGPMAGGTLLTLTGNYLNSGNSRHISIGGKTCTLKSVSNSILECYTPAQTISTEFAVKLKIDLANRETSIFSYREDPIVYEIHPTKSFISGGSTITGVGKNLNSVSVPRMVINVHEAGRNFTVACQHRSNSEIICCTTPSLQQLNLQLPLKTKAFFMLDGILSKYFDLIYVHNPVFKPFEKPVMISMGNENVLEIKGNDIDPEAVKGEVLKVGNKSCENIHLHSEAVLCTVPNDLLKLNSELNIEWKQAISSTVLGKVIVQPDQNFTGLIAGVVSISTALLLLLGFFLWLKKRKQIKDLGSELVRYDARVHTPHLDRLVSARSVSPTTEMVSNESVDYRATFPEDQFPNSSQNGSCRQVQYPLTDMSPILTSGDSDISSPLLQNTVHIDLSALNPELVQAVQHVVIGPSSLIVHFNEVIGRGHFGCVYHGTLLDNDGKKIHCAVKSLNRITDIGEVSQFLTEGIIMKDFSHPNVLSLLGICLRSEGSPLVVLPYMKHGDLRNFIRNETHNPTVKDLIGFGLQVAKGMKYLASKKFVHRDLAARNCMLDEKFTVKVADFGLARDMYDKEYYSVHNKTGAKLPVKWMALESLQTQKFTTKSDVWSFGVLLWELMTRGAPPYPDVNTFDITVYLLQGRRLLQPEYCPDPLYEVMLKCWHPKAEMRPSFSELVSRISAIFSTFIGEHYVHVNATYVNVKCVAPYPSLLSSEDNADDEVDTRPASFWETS", "experiment": "Inhibition of cMET"}, "MV4-11 [5]": {"test_system": "MV4-11", "experiment": "Induction of apoptosis in human MV4-11 cells at 100 nM assessed as prenecrotic cells after 48 hrs by annexin V and propidium iodide staining method (reference value: 91.8 %)", "format": "functional"}, "[6]": {"target": "T1, Tyrosine-protein kinase receptor UFO (Homo sapiens, UniProt P30530)", "T1 sequence (P30530 whole entry)": "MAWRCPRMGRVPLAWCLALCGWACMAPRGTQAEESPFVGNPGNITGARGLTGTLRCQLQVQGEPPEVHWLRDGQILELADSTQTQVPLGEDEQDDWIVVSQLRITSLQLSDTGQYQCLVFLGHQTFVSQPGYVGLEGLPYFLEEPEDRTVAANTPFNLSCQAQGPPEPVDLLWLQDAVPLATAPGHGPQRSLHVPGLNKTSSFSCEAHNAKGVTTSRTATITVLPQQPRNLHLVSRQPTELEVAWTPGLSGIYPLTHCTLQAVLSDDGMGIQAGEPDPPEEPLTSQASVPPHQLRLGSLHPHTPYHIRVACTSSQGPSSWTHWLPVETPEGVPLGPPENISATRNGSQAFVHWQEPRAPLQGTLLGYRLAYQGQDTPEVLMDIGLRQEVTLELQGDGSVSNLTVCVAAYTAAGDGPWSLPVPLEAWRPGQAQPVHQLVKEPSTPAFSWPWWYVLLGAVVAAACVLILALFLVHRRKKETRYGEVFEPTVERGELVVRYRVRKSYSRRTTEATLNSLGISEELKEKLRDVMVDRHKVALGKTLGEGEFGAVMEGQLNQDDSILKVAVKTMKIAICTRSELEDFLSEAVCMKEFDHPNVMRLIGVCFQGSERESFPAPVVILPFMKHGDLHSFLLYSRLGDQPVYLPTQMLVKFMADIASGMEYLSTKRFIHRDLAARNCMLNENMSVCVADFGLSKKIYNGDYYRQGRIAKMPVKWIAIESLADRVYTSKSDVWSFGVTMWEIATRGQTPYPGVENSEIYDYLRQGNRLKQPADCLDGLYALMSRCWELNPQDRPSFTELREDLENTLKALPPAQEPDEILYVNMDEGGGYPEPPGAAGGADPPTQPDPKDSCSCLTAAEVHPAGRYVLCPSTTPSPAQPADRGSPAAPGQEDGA", "experiment": "Inhibition of AXL"}, "BaF3 [7]": {"test_system": "BaF3", "experiment": "Antitumor activity against mouse BA/F3 cells expressing FLT3-ITD mutant xenografted in BALB/c mouse myeloproliferative model assessed as increase in host survival days at 5 mg/kg, po qd relative to control (reference value: 20 days)", "format": "functional, organism-based", "parameters": "dose 5 mg/kg"}, "BaF3 [8]": {"test_system": "BaF3", "experiment": "Antitumor activity against mouse BA/F3 cells expressing FLT3-ITD mutant xenografted in BALB/c mouse myeloproliferative model assessed as increase in host survival days at 0.05 mg/kg, po qd relative to control (reference value: 20 days)", "format": "functional, organism-based", "parameters": "dose 0.05 mg/kg"}, "[9]": {"target": "T2, Tyrosine-protein kinase JAK3 (Homo sapiens, UniProt P52333)", "T2 sequence (P52333 whole entry)": "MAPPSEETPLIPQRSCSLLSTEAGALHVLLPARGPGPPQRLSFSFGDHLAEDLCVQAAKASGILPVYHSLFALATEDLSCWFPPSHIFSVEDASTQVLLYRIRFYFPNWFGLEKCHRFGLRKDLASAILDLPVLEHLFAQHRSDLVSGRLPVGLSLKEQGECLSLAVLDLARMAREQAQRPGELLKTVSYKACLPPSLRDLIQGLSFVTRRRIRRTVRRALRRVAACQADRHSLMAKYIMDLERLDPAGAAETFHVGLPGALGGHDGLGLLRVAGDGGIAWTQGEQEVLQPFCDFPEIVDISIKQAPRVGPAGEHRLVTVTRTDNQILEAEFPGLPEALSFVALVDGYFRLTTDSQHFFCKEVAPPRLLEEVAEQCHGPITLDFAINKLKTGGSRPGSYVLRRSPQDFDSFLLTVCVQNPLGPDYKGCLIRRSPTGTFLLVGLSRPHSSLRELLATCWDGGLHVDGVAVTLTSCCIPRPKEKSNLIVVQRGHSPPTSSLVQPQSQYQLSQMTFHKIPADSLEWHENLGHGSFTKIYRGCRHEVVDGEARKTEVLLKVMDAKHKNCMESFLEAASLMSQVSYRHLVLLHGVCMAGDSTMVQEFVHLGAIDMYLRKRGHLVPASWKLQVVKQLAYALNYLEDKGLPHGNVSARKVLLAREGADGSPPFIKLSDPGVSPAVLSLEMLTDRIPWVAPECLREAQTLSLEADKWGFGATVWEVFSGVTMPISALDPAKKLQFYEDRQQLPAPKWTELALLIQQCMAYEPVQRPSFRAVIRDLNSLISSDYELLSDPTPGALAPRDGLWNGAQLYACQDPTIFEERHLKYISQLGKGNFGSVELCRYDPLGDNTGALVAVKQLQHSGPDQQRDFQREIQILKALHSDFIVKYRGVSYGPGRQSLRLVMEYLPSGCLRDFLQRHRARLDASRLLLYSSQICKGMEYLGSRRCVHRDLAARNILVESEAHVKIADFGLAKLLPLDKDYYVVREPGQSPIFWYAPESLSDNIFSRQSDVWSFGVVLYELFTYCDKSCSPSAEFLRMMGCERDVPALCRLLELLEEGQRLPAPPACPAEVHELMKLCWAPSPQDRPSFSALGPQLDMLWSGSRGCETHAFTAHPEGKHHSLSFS", "experiment": "Inhibition of Jak3"}, "cells": {"experiment": "cells", "conditions": "Homo sapiens, Leukemia cell, 72 h", "description": "Cytotoxicity against human primary leukemia cells isolated from acute myeloid leukemia patient expressing FLT3-D835Y mutation assessed as cell viability after 72 hrs by luciferase assay"}, "[10]": {"experiment": "Oral bioavailability in BALB/c mouse", "format": "ADME, organism-based", "conditions": "in vivo"}, "TF-1": {"test_system": "TF-1", "experiment": "cells", "conditions": "Homo sapiens, TF-1, 72 h", "description": "Cytotoxicity against human TF1 cells assessed as cell viability after 72 hrs by resazurin dye based fluorescence assay"}, "[11]": {"target": "Proto-oncogene tyrosine-protein kinase Src (Homo sapiens, UniProt P12931)", "sequence (P12931 2-536 limits assumed)": "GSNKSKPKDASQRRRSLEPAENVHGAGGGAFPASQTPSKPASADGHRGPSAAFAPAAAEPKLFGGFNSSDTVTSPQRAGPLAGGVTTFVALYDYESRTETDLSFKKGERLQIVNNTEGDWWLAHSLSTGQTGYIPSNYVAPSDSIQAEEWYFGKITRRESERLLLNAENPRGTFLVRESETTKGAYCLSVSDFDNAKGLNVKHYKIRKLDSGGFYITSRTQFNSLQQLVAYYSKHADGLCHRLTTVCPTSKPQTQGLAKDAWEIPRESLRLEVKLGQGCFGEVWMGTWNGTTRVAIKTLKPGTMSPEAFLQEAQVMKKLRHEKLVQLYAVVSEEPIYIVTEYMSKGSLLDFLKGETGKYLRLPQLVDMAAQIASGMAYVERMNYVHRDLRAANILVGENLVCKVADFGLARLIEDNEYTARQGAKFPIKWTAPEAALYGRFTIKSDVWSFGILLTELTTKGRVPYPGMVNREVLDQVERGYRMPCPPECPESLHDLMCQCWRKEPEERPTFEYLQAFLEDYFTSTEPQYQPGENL", "experiment": "Inhibition of Src"}}, "note": "pIC50, pKi: −log10 of the molar value.", "data": [{"smiles": "Nc1nc(Nc2ccc([C@H]3CC[C@H](N4CCOCC4)CC3)cc2)nn1-c1ccccn1", "values": [{"measurement": "Activity", "setting": "Mus musculus [1]", "value": "Dose-dependent effect"}, {"measurement": "Activity", "setting": "Leukemia cell", "value": "> 80", "unit": "%"}, {"measurement": "Cpss", "setting": "Mus musculus [2]", "value": 91, "unit": "ng/mL"}, {"measurement": "Activity", "setting": "MV4-11 [3]", "value": 8.4, "unit": "%"}, {"measurement": "pKi", "setting": "[4]", "value": 6.89}, {"measurement": "Activity", "setting": "MV4-11 [5]", "value": 28.5, "unit": "%"}, {"measurement": "pKi", "setting": "[6]", "value": 7.40}, {"measurement": "MSD", "setting": "BaF3 [7]", "value": 62, "unit": "days"}, {"measurement": "MSD", "setting": "BaF3 [8]", "value": 24, "unit": "days"}, {"measurement": "pKi", "setting": "[9]", "value": 6.55}, {"measurement": "pIC50", "setting": "cells", "value": 6.66}, {"measurement": "bioavailability", "setting": "[10]", "value": 100, "unit": "%"}, {"measurement": "pIC50", "setting": "TF-1", "value": "< 5.40"}, {"measurement": "pKi", "setting": "[11]", "value": 6.11}]}]}
